What was measured:
[1] = molecular target: T1, EGFR (WT) (Homo sapiens, UniProt P00533); assay: In vitro kinase binding assay (phage/DNA-tagged kinase, affinity beads, qPCR), wild-type EGFR; details: wild-type EGFR construct R669 to V1011; 11-point 3-fold dilution series; 1 hour at room temperature; read-out: EGFR (WT) Kd
T1 construct: The EGFR constructs span amino acids R669 to V1011 of the EGFR protein; T7 phage display fusion (kinase-tagged T7 phage) or DNA tag for qPCR; made in house; host or cells: E. coli (BL21-derived) infected with T7 phage for most assays; remaining kinases in HEK-293
Protocol: (§1) For most assays, kinase-tagged T7 phage strains were prepared in an E. coli host derived from the BL21 strain. For the EGFR assays, wild-type EGFR, or mutant EGFR (T790M, L858R) were utilized. The EGFR constructs span amino acids R669 to V1011 of the EGFR protein. E. coli were grown to log-phase and infected with T7 phage and incubated with shaking at 32° C. until lysis. The lysates were centrifuged and filtered to remove cell debris. The remaining kinases were produced in HEK-293 cells and subsequently tagged with DNA for qPCR detection. Streptavidin-coated magnetic beads were treated with biotinylated small molecule ligands for 30 minutes at room temperature to generate affinity resins for kinase assays. The liganded beads were blocked with excess biotin and washed with blocking buffer (SeaBlock (Pierce), 1% BSA, 0.05% Tween 20, 1 mM DTT) to remove unbound ligand and to reduce non-specific binding. Binding reactions were assembled by combining kinases, liganded affinity beads, and test compounds in 1× binding buffer (20% SeaBlock, 0.17×PBS, 0.05% Tween 20, 6 mM DTT). Test compounds were prepared as 111× stocks in 100% DMSO. Kds were determined using an 11-point 3-fold compound dilution series with three DMSO control points. All compounds for Kd measurements are distributed by acoustic transfer (non-contact dispensing) in 100% DMSO. The compounds were then diluted directly into the assays such that the final concentration of DMSO was 0.9%. All reactions performed in polypropylene 384-well plate. Each was a final volume of 0.02 ml. The assay plates were incubated at room temperature with shaking for 1 hour and the affinity beads were washed with wash buffer (lx PBS, 0.05% Tween 20). The beads were then re-suspended in elution buffer (lx PBS, 0.05% Tween 20, 0.5 μM nonbiotinylated affinity ligand) and incubated at room temperature with shaking for 30 minutes. The kinase concentration in the eluates was measured by qPCR.

[2] = molecular target: T2, EGFR (L858R, T790M) (Homo sapiens, UniProt P00533, L858R/T790M); assay: In vitro kinase binding assay (phage/DNA-tagged kinase, affinity beads, qPCR), mutant EGFR
T2 construct: The EGFR constructs span amino acids R669 to V1011 of the EGFR protein; T7 phage display fusion (kinase-tagged T7 phage) or DNA tag for qPCR; made in house; host or cells: E. coli (BL21-derived) infected with T7 phage for most assays; remaining kinases in HEK-293
Protocol: as §1

T2 sequence (P00533 669-1011 T790M/L858R): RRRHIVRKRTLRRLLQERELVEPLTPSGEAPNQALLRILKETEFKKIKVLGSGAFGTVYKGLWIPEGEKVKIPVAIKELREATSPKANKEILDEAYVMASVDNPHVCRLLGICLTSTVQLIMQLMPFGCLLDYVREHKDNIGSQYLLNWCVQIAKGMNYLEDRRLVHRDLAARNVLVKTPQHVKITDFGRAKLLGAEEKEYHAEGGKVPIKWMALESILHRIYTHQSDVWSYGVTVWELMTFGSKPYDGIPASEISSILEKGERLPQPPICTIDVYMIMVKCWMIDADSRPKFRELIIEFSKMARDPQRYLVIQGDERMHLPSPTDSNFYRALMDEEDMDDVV
T1 sequence (P00533 669-1011): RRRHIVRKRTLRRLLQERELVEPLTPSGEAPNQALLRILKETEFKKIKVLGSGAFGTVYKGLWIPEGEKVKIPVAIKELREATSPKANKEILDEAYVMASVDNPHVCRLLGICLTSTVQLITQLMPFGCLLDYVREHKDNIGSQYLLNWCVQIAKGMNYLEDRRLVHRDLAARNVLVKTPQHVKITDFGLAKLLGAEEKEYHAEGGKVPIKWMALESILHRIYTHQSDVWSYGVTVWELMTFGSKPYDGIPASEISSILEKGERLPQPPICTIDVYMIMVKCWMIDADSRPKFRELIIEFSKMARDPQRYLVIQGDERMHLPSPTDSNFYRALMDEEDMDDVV

Kd [1]: 2 to 100 nM
Kd ([2]; mutant EGFR (T790M, L858R) construct R669 to V1011, 11-point 3-fold dilution series, 1 hour at room temperature, read-out: EGFR (L858R, T790M) Kd): < 1 nM
Binding Affinity ratio of WT/DM ([2]; ratio of Kd EGFR (WT) to Kd EGFR (L858R, T790M)): A (4 < A ≤ 25)
Structure (SMILES): C=CC(=O)N[C@@H]1CN(c2nc(Nc3cn(CCCNC(=O)CN4CCN(CC(=O)O)CCN(CC(=O)O)CCN(CC(=O)O)CC4)nc3OC)c3ncn(C)c3n2)C[C@H]1F [Compound 001, 2-[4,7-bis(carboxymethyl)-10-[2-[3-[4-[[2-[(3R,4R)-3-fluoro-4-(prop-2-enoylamino)pyrrolidin-1-yl]-9-methyl-purin-6-yl]amino]-3-methoxy-pyrazol-1-yl]propylamino]-2-oxo-ethyl]-1,4,7,10-tetrazacyclododec-1-yl]acetic acid]
